Broadly, the IC50 is the midpoint of a concentration-inhibition curve.

The values below come from patent US20220041578A1, “ISOINDOLINE COMPOUND, AND PREPARATION METHOD, PHARMACEUTICAL COMPOSITION, AND APPLICATION OF ISOINDOLINE COMPOUND” (Shanghai Institute of Meteria Medica, Chinese Academy of …, priority 2018, published 2022).

The assay concerns MM.1S cells. In words: Effect of the compound on the proliferation of MM.1S cells (MTS). The assay is classed as cell-based. The settings on record: Homo sapiens, MM1.S, 168 h, 7 days, read-out: Cell inhibitory activity (IC50). As for the experimental part:
MM.1S cells were cultured with 1640 plus 10% fetal bovine serum and collected. The cell concentration was diluted according to the action time of 7 days, and 180 ul cell suspension was added to each well of the 96-well cell plate to make the cell count to be 20,000. 20 ul of DMSO with a final concentration of 0.2% was added to the control cell wells. The compound was diluted 5-fold with the 10 mM stock solution, and 20 ul was also added to the compound cell wells (the final concentration of DMSO is 0.2%). The cells were placed in a 37° C., 5% CO2 incubator and incubated for 7 days. After preparing the reaction solution according to the MTS kit (Promega, G5430), 20 μL was added to each well, incubated in a 37° C., 5% CO2 incubator for 3-4 h. Read the 490 nm absorbance value with a microtiter plate, and used the 690 nm absorbance value as the background value and OD490-OD690 as the final initial data. The formula for calculating the inhibition rate of the compound is: inhibition rate=(OD DMSO-ODcompound)/(ODDMSO-Oblank)×100%. The compound's proliferation inhibition IC50 was fitted by Graph Pad Prism 5.0. The experiment was repeated three times, and three parallel experiments were used to calculate the average and standard deviation each time.
With `O=C1CCC(N2Cc3c(OCCc4cn(-c5ccc(OC(F)(F)F)cc5)nn4)cccc3C2=O)C(=O)N1` (stereo not shown) [Compound 61, 3-(1-oxo-4-(2-(1-(4-(trifluoromethoxy)phenyl)-1H-1,2,3-triazol-4-)ethoxy)isoindoline-2-) piperidine-2,6-dione], the IC50 was under 150 nM. Next, `O=C1CCC(N2Cc3c(CCc4cnc(-c5ccc(OC(F)(F)F)cc5)o4)cccc3C2=O)C(=O)N1` (stereo not shown) [Compound 62, 3-(1-oxo-4-(2-(2-(4-(trifluoromethoxy)phenyl)oxazol-5-yl)ethyl)isoindolin-2-yl) piperidine-2,6-dione]: under 150 nM; `O=C1CCC(N2Cc3c(CCCc4cnc(-c5ccc(OC(F)(F)F)cc5)o4)cccc3C2=O)C(=O)N1` (stereo not shown) [Compound 63, 3-(1-oxo-4-(3-(2-(4-(trifluoromethoxy)phenyl)oxazol-5-yl)propyl)isoindolin-2-yl) piperidine-2,6-dione]: over 20000 nM; `O=C1CCC(N2Cc3c(OCC4CN(c5ccc(OC(F)(F)F)cc5)C4)cccc3C2=O)C(=O)N1` (stereo not shown) [Compound 64, 3-(1-oxo-4-((1-(4-trifluoromethoxyphenyl)azetidin-3-)methoxy)isoindolin-2-) piperidine-2,6-dione]: 150 to 20000 nM.

In the case of `O=C1CCC(N2Cc3c(OC[C@H]4CCN(c5ccnc6ccccc56)C4)cccc3C2=O)C(=O)N1` (stereo partly drawn) [Compound 65, 3-(1-oxo-4-(((S)-1-(quinolin-4-)pyrrolin-3-)methoxy)isoindolin-2-) piperidine-2,6-dione], the IC50 was 150 to 20000 nM.

With `O=C1CCC(N2Cc3c(OC[C@@H]4CCN(c5ccnc6ccccc56)C4)cccc3C2=O)C(=O)N1` (stereo partly drawn) [Compound 66, 3-(1-oxo-4-(((R)-1-(quinolin-4-)pyrrolin-3-)methoxy)isoindolin-2-) piperidine-2,6-dione], the IC50 lay within 150 to 20000 nM. As for `O=C1CCC(N2Cc3c(OCC4CCN(c5ccnc6ccccc56)CC4)cccc3C2=O)C(=O)N1` (stereo not shown) [Compound 67, 3-(1-oxo-4-((1-(quinolin-4-)piperidin-4-)methoxy)isoindolin-2-) piperidin-2,6-dione], the figure is under 150 nM; as for `O=C1CCC(N2Cc3c(OCCC4CCN(c5ccnc6ccccc56)CC4)cccc3C2=O)C(=O)N1` (stereo not shown) [Compound 68, 3-(1-oxo-4-(2-(1-(quinolin-4-)piperidin-4-)ethoxy)isoindolin-2-) piperidin-2,6-dione], under 150 nM; as for `O=C1CCC(N2Cc3c(OCCC4CN(c5ccnc6ccccc56)C4)cccc3C2=O)C(=O)N1` (stereo not shown) [Compound 69, 3-(1-oxo-4-(2-(1-(quinolin-4-)azetidin-3-)ethoxy)isoindolin-2-) piperidine-2,6-dione], 150 to 20000 nM.

Regarding `O=C1CCC(N2Cc3c(OCC4CCC(c5ccc(OC(F)(F)F)cc5)CC4)cccc3C2=O)C(=O)N1` (stereo not shown) [Compound 72, 3-(1-oxo-4-((4-(4-(trifluoromethoxy)phenyl)cyclohexyl)methoxy)isoindolin-2-) piperidine-2,6-dione], the IC50 was under 150 nM. As for `O=C1CCC(N2Cc3c(OCC4CCN(c5ccc(OC(F)(F)F)cc5)CC4)cccc3C2=O)C(=O)N1` (stereo not shown) [Compound 73, 3-(1-oxo-4-((1-(4-(trifluoromethoxy)phenyl)piperidin-4-)methoxy)isoindolin-2-) piperidin-2,6-dione], the IC50 was under 150 nM. Next, `[2H]c1c([2H])c([2H])c(-n2cc(COc3cccc4c3CN(C3CCC(=O)NC3=O)C4=O)nn2)c([2H])c1[2H]` (stereo not shown) [Compound 78, 3-(1-oxo-4-((1-(phenyl-D5)-1H-1,2,3-triazol-4-yl)methoxy)isoindolin-2-yl) piperidine-2,6-dione]: under 150 nM. As for `[2H]c1c([2H])c([2H])c(-n2cc(COc3cc(F)cc4c3CN(C3CCC(=O)NC3=O)C4=O)nn2)c([2H])c1[2H]` (stereo not shown) [Compound 79, 3-(6-fluoro-1-oxo-4-((1-(phenyl-D5)-1H-1,2,3-triazol-4-yl)methoxy)isoindolin-2-yl) piperidine-2,6-dione], the figure is under 150 nM; as for `O=C1CCC(N2Cc3c(OCc4cnc(-c5ccc(OC(F)(F)F)cc5)o4)cc(F)cc3C2=O)C(=O)N1` (stereo not shown) [Compound 80, 3-(6-fluoro-1-oxo-4-((2-(4-(trifluoromethoxy)phenyl)oxazol-5-yl)methoxy)isoindolin-2-yl) piperidine-2,6-dione], under 150 nM. Regarding `O=C1CCC(N2Cc3c(NCc4cnc(-c5ccc(OC(F)(F)F)cc5)o4)cccc3C2=O)C(=O)N1` (stereo not shown) [Compound 82], the IC50 is under 150 nM. Next, `Cc1c(COc2cccc3c2CN(C2CCC(=O)NC2=O)C3=O)cnn1-c1c(Cl)cc(C(F)(F)F)cc1Cl` (stereo not shown) [Compound 83]: under 150 nM. Turning to `Cc1c(COc2cccc3c2CN(C2CCC(=O)NC2=O)C3=O)cnn1-c1c(Cl)cc(OC(F)(F)F)cc1Cl` (stereo not shown) [Compound 84, 3-(4-((1-(2,6-dichloro-4-(trifluoromethoxy)phenyl)-5-methyl-1H-pyrazol-4-yl)methoxy)-1-isoindolin-2-1) piperidine-2,6-dione], the IC50 is under 150 nM. Next, `Cc1cc(COc2cccc3c2CN(C2CCC(=O)NC2=O)C3=O)nn1-c1c(Cl)cc(OC(F)(F)F)cc1Cl` (stereo not shown) [Compound 85, 3-(4-((1-(2,6-dichloro-4-(trifluoromethoxy)phenyl)-5-methyl-1H-pyrazol-3-yl)methoxy)-1-isoindolin-2-yl)piperidine-2,6-dione]: under 150 nM; `O=C1CCC(N2Cc3c(OCc4cn(C56CC7CC(CC(O)(C7)C5)C6)nn4)cccc3C2=O)C(=O)N1` [Compound 86, 3-(4-((1-((1R, 3S, 5R, 7S)-3-hydroxyadamantan-1-yl)-1H-1,2,3-triazol-4-yl)methoxy)-1-isoindolin-pyridin-2-yl) piperidin-2,6-dione]: over 20000 nM; `O=C1CCC(N2Cc3c(OCc4cn(C5C6CC7CC(C6)CC5C7)nn4)cccc3C2=O)C(=O)N1` [Compound 87, 3-(4-((1-((1R, 3R, 5R, 7R)-adamantan-2-yl)-1H-1,2,3-triazol-4-yl)methoxy)-1-isoindolin-2-yl) piperidin-2,6-dione]: under 150 nM.

Take `CC(n1cc(COc2cccc3c2CN(C2CCC(=O)NC2=O)C3=O)nn1)C12CC3CC(CC(C3)C1)C2` [Compound 88, 3-(4-((1-(1-((1S, 3S)-adamantan-1-yl)ethyl)-1H-1,2,3-triazol-4-yl)methoxy)-1-isoindolin-2-yl) piperidin-2,-6-dione]: the IC50 was under 150 nM.

Turning to `C[C@]12CC3CC(n4cc(COc5cccc6c5CN(C5CCC(=O)NC5=O)C6=O)nn4)(C1)C[C@@](C)(C3)C2` (stereo partly drawn) [Compound 89, 3-(4-((1-((1R, 3R, 5S, 7R)-3,5-dimethyladamantin-1-yl)-1H-1,2,3-triazol-4-yl)methoxy)-1-isoindolin-2-yl) piperidin-2,6-dione], the IC50 was over 20000 nM.

As to `O=C1CCC(N2Cc3c(OCc4cnc(-c5ccc(Cl)c(Cl)c5)o4)cccc3C2=O)C(=O)N1` (stereo not shown) [Compound 91, 3-(4-((2-(3,4-dichlorophenyl)oxazol-5-yl)methoxy)-1-oxoisoindol-2-yl) piperidine-2,6-dione], the IC50 is under 150 nM. As for `O=C1CCC(N2Cc3c(OCc4cn(-c5ccc(OC6CC6)cc5F)nn4)cccc3C2=O)C(=O)N1` (stereo not shown) [Compound 92, 3-(4-((1-(4-cyclopropoxy-2-fluorophenyl)-1H-1,2,3-triazol-4-yl)methoxy)-1-oxoisoindol-2-yl) piperidine-2,6-dione], the figure is 150 to 20000 nM; as for `O=C1CCC(N2Cc3c(NCc4cnc(-c5ccccc5OC(F)(F)F)o4)cccc3C2=O)C(=O)N1` (stereo not shown) [Compound 94], 150 to 20000 nM.
